Experimental data: patent publication US20050101595A1, “N-containing cycloalkyl-substituted amino-thiazole derivatives and pharmaceutical compositions for inhibiting cell proliferation and methods for their use” (PFIZER INC., priority 2003, published 2005)
Like-named read-outs stand apart in the source and are kept apart here.

Key:
[1] = biological target: human CDK4 and genetically truncated (1-264) cyclin D3 (Homo sapiens, UniProt P11802); test: Inhibition of CDK4/Cyclin D Retinoblastoma Kinase Activity; assay type: biochemical; conditions: for Ki: apparent Ki, CDK4/truncated cyclin D3, Rb fragment substrate, 25 μM ATP; for CDK4 % Inhibition at 0.03 μM: 0.03 μM compound
Method in brief: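 The enzyme complex (5 nM), expressed in co-infected insect cells, was incubated with recombinant Rb fragment, 25 μM radiolabelled ATP and 2% DMSO at 30 °C. Reactions were stopped with EDTA after 20 minutes, or 60 minutes for tight-binding inhibitors. Apparent Ki values came from competitive inhibition fits.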

CDK2/Cyclin A = CDK2/Cyclin A (Homo sapiens, UniProt P24941); test: Inhibition of CDK2/Cyclin A Retinoblastoma Kinase Activity; assay type: biochemical; conditions: for Ki: apparent Ki, CDK2/proteolyzed cyclin A, Rb fragment substrate, 25 μM ATP; for CDK2 % Inhibition at 0.03 μM / CDK2 % Inhibition At 0.03 μM: 0.03 μM compound; for CDK2 % Inhibition At 0.03 μM: Table 2
Method in brief: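 CDK2 (10 or 19 nM), insect-cell expressed, gel-filtration purified with truncated cyclin A; Rb fragment substrate; 25 μM ATP; 10 mM HEPES pH 7.4, 10 mM MgCl2; 30° C, 60 or 75 min; EDTA stop; phosphocellulose/nitrocellulose capture, phosphorimager. % inhibition vs DMSO control, no-enzyme background subtracted.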

HCT-116 cell line = test: Inhibition of cell growth, tetrazolium salt (MTT) assay; assay type: cell-based; conditions: for IC50: Homo sapiens, HCT-116, 120 h, MTT, three to five days, read-out: HCT-116 IC50; for HCT-116 % Inhibition at 0.1 μM: 0.1 μM compound; for HCT-116 % Inhibition at 0.25 μM: 0.25 μM compound
Method in brief: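 MTT colorimetric viability: three-to-five-day compound exposure in 0.5% (v/v) DMSO at 37° C, MTT 0.2 mg/mL for the last 4 h, A540 compared with vehicle-treated cells.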

Sequence of human CDK4 and genetically truncated (1-264) cyclin D3 (P11802 whole entry, the tested form may be a part): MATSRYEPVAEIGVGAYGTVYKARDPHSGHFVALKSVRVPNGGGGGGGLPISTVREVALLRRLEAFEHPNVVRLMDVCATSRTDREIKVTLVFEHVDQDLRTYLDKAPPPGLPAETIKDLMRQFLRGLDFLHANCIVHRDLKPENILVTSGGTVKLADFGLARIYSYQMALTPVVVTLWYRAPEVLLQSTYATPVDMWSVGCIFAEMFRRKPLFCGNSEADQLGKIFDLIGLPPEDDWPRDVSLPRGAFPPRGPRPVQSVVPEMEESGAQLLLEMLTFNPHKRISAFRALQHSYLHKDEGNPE
Sequence of human CDK4 and genetically truncated (1-264) cyclin D3 (P30281 1-264 partner): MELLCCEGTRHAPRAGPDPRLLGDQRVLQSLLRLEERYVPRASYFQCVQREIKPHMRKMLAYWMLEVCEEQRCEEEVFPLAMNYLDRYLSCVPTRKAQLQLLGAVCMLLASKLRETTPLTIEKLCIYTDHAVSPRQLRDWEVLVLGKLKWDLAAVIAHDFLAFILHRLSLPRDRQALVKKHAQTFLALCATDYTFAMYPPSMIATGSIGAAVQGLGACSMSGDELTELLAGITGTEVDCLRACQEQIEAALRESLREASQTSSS

SMILES | Ki [1] | Ki (CDK2/Cyclin A) | IC50 (HCT-116 cell line; first HCT-116 column (c4)) | IC50 (HCT-116 cell line; second HCT-116 column (c5)) | also measured
Nc1nc(NC2CCN(C(=O)c3ccc(Cl)nc3)CC2)sc1C(=O)c1c(F)cccc1F [Example C9, 1-(4-Amino-2-{1-[-(6-chloro-pyridin-3-yl)-methanoyl]-piperidin-4-ylamino}-thiazol-5-yl)-1-(2,6-difluoro-phenyl)-methanone] | 20 nM | 67 nM | 590 nM | 1300 nM | 
Nc1nc(NC2CCN(C(=O)c3ccc(Cl)c(Cl)c3)CC2)sc1C(=O)c1c(F)cccc1F [Example Q20] |  |  |  |  | CDK4 % Inhibition at 0.03 μM ([1]; Table 4): 74%; CDK2 % Inhibition at 0.03 μM (CDK2/Cyclin A; Table 4): 33%; HCT-116 % Inhibition at 0.1 μM (HCT-116 cell line; Table 4): 28%; HCT-116 % Inhibition at 0.25 μM (HCT-116 cell line; Table 4): 69%
Nc1nc(NC2CCN(S(=O)(=O)c3ccc(F)cc3Cl)CC2)sc1C(=O)c1c(F)cccc1F [Example P55] |  |  |  |  | CDK4 % Inhibition at 0.03 μM ([1]; Table 3): 52%; CDK2 % Inhibition at 0.03 μM (CDK2/Cyclin A; Table 3): 43%; HCT-116 % Inhibition at 0.1 μM (HCT-116 cell line; Table 3): 20%; HCT-116 % Inhibition at 0.25 μM (HCT-116 cell line; Table 3): 25%
CC[C@@H](NCCS(=O)(=O)N1CCC(Nc2nc(N)c(C(=O)c3c(F)cccc3F)s2)CC1)c1ccccc1 [Example K46, (4-Amino-2-{1-[2-(1 R-phenyl-propylamino)-ethanesulfonyl]-piperidin-4-ylamino}-thiazol-5-yl)-(2,6-difluoro-phenyl)-methanone] | 2.1 nM | 0.81 nM | 130 nM | 260 nM | 
Nc1nc(NC2CCN(S(=O)(=O)/C=C/c3ccccc3)CC2)sc1C(=O)c1c(F)cccc1F [Example P26] |  |  |  |  | CDK4 % Inhibition at 0.03 μM ([1]; Table 3): 39%; CDK2 % Inhibition at 0.03 μM (CDK2/Cyclin A; Table 3): 37%; HCT-116 % Inhibition at 0.1 μM (HCT-116 cell line; Table 3): 4%; HCT-116 % Inhibition at 0.25 μM (HCT-116 cell line; Table 3): 23%
Nc1nc(NC2CCN(S(=O)(=O)c3ccc(N4CCC(O)CC4)nc3)CC2)sc1C(=O)c1c(F)cccc1F [Example G9, 1-{4-Amino-2-[1-(4Hydroxy-3,4,5,6-tetrahydro-2H-[1,2′]bipyridinyl-5′-sulfonyl)-piperidin-4-ylamino]-thiazol-5-yl}-1-(2,6-difluoro-phenyl)-methanone] | 2.2 nM | 0.52 nM | 170 nM | 1800 nM | 
Nc1nc(NC2CCN(S(=O)(=O)c3cccc(Cl)c3Cl)CC2)sc1C(=O)c1c(F)cccc1F [Example P39] |  |  |  |  | CDK4 % Inhibition at 0.03 μM ([1]; Table 3): 42%; CDK2 % Inhibition at 0.03 μM (CDK2/Cyclin A; Table 3): 24%; HCT-116 % Inhibition at 0.1 μM (HCT-116 cell line; Table 3): 0%; HCT-116 % Inhibition at 0.25 μM (HCT-116 cell line; Table 3): 25%
Cc1ccc2cc(S(=O)(=O)N3CCC(Nc4nc(N)c(C(=O)c5c(F)cccc5F)s4)CC3)ccc2c1 [Example P88] |  |  |  |  | CDK4 % Inhibition at 0.03 μM ([1]; Table 3): 49%; CDK2 % Inhibition at 0.03 μM (CDK2/Cyclin A; Table 3): 44%; HCT-116 % Inhibition at 0.1 μM (HCT-116 cell line; Table 3): 7%; HCT-116 % Inhibition at 0.25 μM (HCT-116 cell line; Table 3): 34%
Nc1nc(NC2CCN(S(N)(=O)=O)CC2)sc1C(=O)c1c(F)cccc1F [Example E4, 4-[4-Amino-5-(2,6-difluoro-benzoyl)-thiazol-2-ylamino]-piperidine-1-sulfonic acid amide] | 14 nM | 2.7 nM | 570 nM | 1200 nM | 
COC(=O)CCc1ccc(S(=O)(=O)N2CCC(Nc3nc(N)c(C(=O)c4c(F)cccc4F)s3)CC2)cc1 [Example F46] | 2 nM | 0.8 nM | 790 nM | > 5000 nM | 
Nc1nc(NC2CCN(C(=O)Nc3ccc(Br)cc3)CC2)sc1C(=O)c1c(F)cccc1F [Example O18] |  |  |  |  | CDK4 % Inhibition at 0.03 μM ([1]; Table 2): 9%; CDK2 % Inhibition At 0.03 μM (CDK2/Cyclin A): 27%; HCT-116 % Inhibition at 0.25 μM (HCT-116 cell line; Table 2): 20%
CC1(C)CN(c2ccc(S(=O)(=O)N3CCC(Nc4nc(N)c(C(=O)c5c(F)cccc5F)s4)CC3)cn2)CCN1 [Example G22, 1-(4-Amino-2-{1-[6-(3,3-dimethyl-piperazin-1-yl)-pyridine-3-sulfonyl]-piperidin-4-ylamino}-thiazol-5-yl)-1-(2,6-difluoro-phenyl)-methanone] | 0.22 nM | 0.66 nM | 210 nM | 3000 nM | 
CC(=O)c1cccc(NC(=O)N2CCC(Nc3nc(N)c(C(=O)c4c(F)cccc4F)s3)CC2)c1 [Example O47] |  |  |  |  | CDK4 % Inhibition at 0.03 μM ([1]; Table 2): 14%; CDK2 % Inhibition At 0.03 μM (CDK2/Cyclin A): 35%; HCT-116 % Inhibition at 0.25 μM (HCT-116 cell line; Table 2): 35%
Nc1nc(NC2CCN(S(=O)(=O)CCN3CC=CC3)CC2)sc1C(=O)c1c(F)cccc1F [Example K36, (4-Amino-2-{1-[2-(2,5-dihydro-pyrrol-1-yl)-ethanesulfonyl]-piperidin-4-ylamino}-thiazol-5-yl)-(2,6-difluoro-phenyl)-methanone.] | 6.6 nM | 7.5 nM | 650 nM | 1900 nM | 
